PMC4492822 (EMBO Molecular Medicine, 2015)

Assays:
H1299.EJ cells = assay: Non-homologous end-joining reporter assay; assay type: cell-based; conditions: 4–6 μM
Procedure: NHEJ was assessed by the functional reporter system H1299-EJ, provided by E Dikomey. […] When these sites are incised by I-SceI, the artificial start codon is removed creating a DSB. Repair of this DSB by NHEJ restores GFP expression, so that cells capable for NHEJ can be identified by their GFP fluorescence intensity (Kriegs et al, [2010]). H1299.EJ cells were plated in a 6-well plate (1 × 10^5 cell/well) and treated with 4–6 μM RK-33. The following day, cells were transfected (in duplicates) with 1–2 μg of pSceI or pEGFP construct using TransIT-LT1 (Mirus, Madison, WI, USA) in serum-free media (Opti-MEM, Invitrogen, Carlsbad, CA, USA). Media was replaced after 4–6 h with complete media. Subsequently, cells were harvested by trypsinization, washed in PBS, and resuspended in 0.5 ml PBS. NHEJ activity was measured on a FACScan I instrument and analyzed on FlowJo software. Recombination frequency was calculated as ((% pSceI − % negative control) / % pEGFP). H1299-DR-GFP cells, provided by RG Bristow, were used to measure homologous recombination similarly as described above (Chan et al, [2008]).

A549 = assay: Annexin V / PI flow cytometry, 72 h; assay type: cell-based, human
Procedure: Histograms depicting early apoptosis (Annexin V positive) and late apoptosis (PI positive) in cells treated with the indicated amounts of RK-33. Cells were either treated with DMSO (controls) or IC50 and IC75 amounts of RK-33. After 72 hours incubation, cells were harvested and stained for Annexin V and PI and analyzed by flow cytometry.

## diimidazo[4,5-d:4′,5′-f]-[1,3]diazepine [RK-33]
H1299.EJ cells
  reduction of NHEJ: 38%
A549; 9 uM, first (upper) value of panel
  cells in gate of Annexin V/PI plot: 81.7
A549; 9 uM, second value of panel
  cells in gate of Annexin V/PI plot: 4.44
A549; 9 uM, third (lowest) value of panel
  cells in gate of Annexin V/PI plot: 4.73
A549; 10.5 uM, first (upper) value of panel
  cells in gate of Annexin V/PI plot: 85.3
A549; 10.5 uM, second value of panel
  cells in gate of Annexin V/PI plot: 5.99
A549; 10.5 uM, third (lowest) value of panel
  cells in gate of Annexin V/PI plot: 2.26
